Values of other authors in US10967066B2, “Stapled acid-sensitive endosome disrupting alginates” (University of Pittsburgh—Of the Commonwealth System of …, priority 2015, dated 2021).

What was measured:
tumors = settings: mice

## CC(C)c1cc(C(=O)[O-])c(O)c(C(C)C)c1.CC(C)c1cc(C(=O)[O-])c(O)c(C(C)C)c1.[Cu+2] [Cu(II)DIPS, copper(II) (3,5-diisopropylsalicylate)2]
Cancer cells
  hydrogen peroxide accumulation and cell death in cancer cells: induce hydrogen peroxide accumulation due to the conversion of radical oxygen into hydrogen peroxide, with this accumulation of hydrogen peroxide leading to cell death in cancer cells
tumors
  clearing tumors: effective in clearing tumors in mice
